Measured values taken from patent US6677433B2 (The Regents of the University of California, priority 2001, dated 2004).
Where two headings read alike, the source gives them in different places.

B1: Glutaredoxin: E. coli glutaredoxin with glutathione reductase, glutathione and NADPH (protein, UniProt P68688 1-85, looked up)
Glutaredoxin 1: MQTVIFGRSGCPYCVRAKDLAEKLSNERDDFQYQYVDIRAEGITKEDLQQKAGKPVETVPQIFVDQQHIGGYTDFAAWVKENLDA
modifications: with glutathione reductase, glutathione, NADPH
B2: α-lactalbumin: purified milk allergen (protein, UniProt P00711 20-142, looked up)
Alpha-lactalbumin: EQLTKCEVFRELKDLKGYGGVSLPEWVCTTFHTSGYDTQAIVQNNDSTEYGLFQINNKIWCKDDQNPHSSNICNISCDKFLDDDLTDDIMCVKKILDKVGINYWLAHKALCSEKLDQWLCEKL

Columns and labels:
Gliadins = test: Reductant specificity of gliadins (mBBr, native gel, densitometer); assay type: biochemical, durum wheat; parameters: Gliadin, % Relative Reduction, α / Gliadin, % Relative Reduction, β / Gliadin, % Relative Reduction, γ: concentration or dose not given beside the values; conditions: Thioredoxin = 100
Procedure: (§1) For isolation of insoluble storage proteins, semolina (0.2 g) was extracted sequentially with 1 ml of the following solutions for the indicated times at 25° C.; (1) 50 mM Tris-HCl, pH 7.5 (20 min); (2) 70% ethanol (2 hr); and (3) 0.1 M acetic acid (2 hr). During extraction, samples were placed on an electrical rotator and, in addition, occasionally agitated with a vortex mixer. After extraction with each solvent, samples were centrifuged (12,000 rpm for 5 min) in an Eppendorf microfuge and, supernatant fractions were saved for analysis. In between each extraction, pellets were washed with 1 ml of water, collected by centrifugation as before and the supernatant wash fractions were discarded. By convention, the fractions are designated: (1) albumin/globulin; (2) gliadin; and (3) glutenin.
(§2) Reactions were carried out in 100 mM Tris-HCl buffer, pH 7.9. As indicated, 0.7 μg NTR and 1 μg thioredoxin (both from E. coli unless specified otherwise) were added to 70 μl of this buffer containing 1 mM NADPH and 10 μg of target protein.
To resolve the different types of gliadins, native polyacrylamide gel electrophoresis was performed in 6% gels (a procedure designed to separate gliadins into the four types) as described by Bushuk and Zillman (Bushuk, W. et al. (1978), Can. J. Plant Sci. 58:505-515) and modified for vertical slab gels by Sapirstein and Bushuk (Sapirstein, H. D. et al. (1985), Cereal Chem. 62:372-377). A gel solution in 100 ml final volume contained 6.0 g acrylamide, 0.3 g bisacrylamide, 0.024 g ascorbic acid, 0.2 mg ferrous sulfate heptahydrate and 0.25 g aluminum lactate. The pH was adjusted to 3.1 with lactic acid. The gel solution was degassed for 2 hr. on ice and then 0.5 ml of 3% hydrogen peroxide was added as a polymerization catalyst. The running buffer, also adjusted to pH 3.1 with lactic acid, contained 0.5 g aluminum lactate per liter. Duration of electrophoresis was approximately 4 hr., with a constant current of 50 mA. Electrophoresis was terminated when the solvent front, marked with methyl green tracking dye, migrated to about 1 cm from the end of the gel.
(§3) The Polaroid negatives of fluorescent gels and prints of wet protein stained gels were scanned with a laser densitometer (Pharmacia-LKB UltroScan XL). Fluorescence was quantified by evaluating peak areas after integration with GelScan XL software.
The gliadin fraction is made up of four different protein types, designated α, β, γ and ω, which can be separated by native polyacrylamide gel electrophoresis under acidic conditions (Bushuk, W. et al. (1978), Can. J. Plant Sci. 58:505-515; Kasarda, D. D. et al. (1976), Adv. Cer. Sci. Tech. 1:158-236; Sapirstein, H. D. et al. (1985), Cereal Chem. 62:372-377; and Tatham, A. S. et al. (1990), Adv. Cer. Sci. Tech. 10:1-78). Except for the ω) gliadins, each species contains cystine (S—S) groups and thus has the potential for reduction by thioredoxin. In this study, following incubation with the indicated additions, proteins were derivatized with mBBr, and fluorescence was visualized after acidic-polyacrylamide gel electrophoresis. The lanes in the second gliadin gel in this study were as follows: 1. Control: no addition. 2. GSH: reduced glutathione. 3. GSH/GR/NADPH: reduced glutathione, glutathione reductase (from spinach leaves) and NADPH. 4. NGS: NADPH, reduced glutathione, glutathione reductase (from spinach leaves) and glutaredoxin (from E. coli). 5. NGS+NTS: combination of 4 and 6. 6. NTS: NADPH, NTR, and thioredoxin (both proteins from E. coli). 7. MET/T(Ec): β-mercaptoethanol and thioredoxin (E. coli). 8. DTT/T(Ec): DTT and thioredoxin (E. coli). 9. NTS(−T): same as 6 except without thioredoxin. 10. NGS+NTS,-Gliadin: same as 5 except without the gliadin fraction.

Glutenins = test: Reductant specificity of glutenins (mBBr/SDS-PAGE, densitometer); assay type: biochemical, durum wheat; parameters: concentration or dose not given beside the values
Procedure: as §1, §2
SDS-polyacrylamide electrophoresis of the mBBr-derivatized samples was performed in 15% gels at pH 8.5 as described by Laemmli, U.K. (1970), Nature 227:680-685. Gels of 1.5 mm thickness were developed for 16 hr. at a constant current of 9 mA.
as §3

castor seed 2S protein = assay type: biochemical, Ricinus communis
egg white proteins = test: Reduction of egg white proteins (mBBr/SDS-PAGE); assay type: biochemical, chicken; conditions: 1 hr at room temperature
Procedure: Dried chicken egg white was purchased from Sigma Chemical Co. About 80% of the total proteins in egg white are allergens. A solution of 20 mg/ml egg white was resuspended in PBS. Since not all the material was dissolved, it was centrifuged at 14,000 RPM for 2 min. The soluble egg white proteins were used for the reduction study using mBBr fluorescent labelling and SDS-polyacrylamide gel electrophoresis analysis. The treatments used were the control (no reductant), NTS, DTT plus thioredoxin, reduced glutathione (GSH) and reduced glutathione/glutathione reductase/NADPH. Reactions were carried out in PBS with 23 microliters of the soluble proteins from the 20 mg/ml egg white suspension in a final volume of 100 microliters. In the NTS, 7.5 mM NADPH, 2.4 micrograms thioredoxin and 2.1 micrograms NTR were used. When thioredoxin was reduced by DTT, NADPH and NTR were omitted and DTT was added to 1.5 mM. The GSH concentration used was 3 mM. For reduction by the GSH/GR/NADPH system, 3 mM GSH, 4 micrograms GR and 7.5 mM NADPH were used. The mixture was incubated for 1 hr at room temperature. After incubation, 7 microliters of 80 mM mBBr was added and the reaction continued for 15 min at room temperature. […] Samples were then analyzed by SDS-polyacrylamide gel electrophoresis.

thioredoxin = thioredoxin (Escherichia coli, UniProt P0AA25)
pepsin = test: Pepsin assay in simulated gastric fluid; assay type: in vitro ADME, porcine; conditions: thioredoxin-reduced form in milk, SGF 37° C.
Procedure: BLG, 640 μg, or milk, 1 mg protein (i.e., about 30 μl), was incubated with or without the thioredoxin system (NTS) at either 4° C. […] The BLG, 320 μg, or milk, 500 μg protein, was then treated in 200 μl of simulated gastric fluid (SGF) as described by Astwood, J. D. et al. (1996), “Stability of food allergens to digestion in vitro”, Nature Biotechnol. 14:1269-1273. SGF consists of 0.32% pepsin (w/v) and 30 mM NaCl adjusted at pH 1.2 with HCl (Board of Trustees (ed.) 1995, Simulated Gastric Fluid, TS., pp. 2053 in the United States Pharmacopeia 23, The National Formulary 18. United States Pharmacopeial Convention, Inc. Rockville, Md.). The reaction mixture was incubated at 37° C. and stopped by adding 0.375-fold volume of 160 mM Na2CO3 (ca. pH 7) after 0, 0.25, 1, 2, 4, 8, 15, 30 and 60 min incubation. The protein mixture was then subjected to SDS-PAGE (15% gels) and stained for protein with Coomassie blue as described below. As indicated, the allergenicity of the digested samples was determined by skin test analysis.

atopic dogs = test: Feeding challenges with BLG, upper GI index; assay type: in vivo, dog
Procedure: Reduction of 80% pure BLG (a mixture of the A and B forms) was carried out for each dog in 100 ml of water. Each gram of BLG was treated by adding an aqueous mixture of 104 mg of NADPH, 1 mg of E. coli thioredoxin and 1 mg of E. coli NTR. The reactions occurred in a shaker at 125 rpm at 37° C. for 45 min. Samples were stored overnight at 4° C. The following day untreated (control) or treated BLG, 2.5 gm was mixed with a 12 oz. can of P/D food (Hills) and fed to a dog. Unchallenged animals received dog food alone without BLG while control animals received dog food with untreated BLG. Dogs were initially fed ¼ can of untreated food to initiate gastric flow. After 15 min, they were then fed at 3 intervals separated by 15 min ⅓ of a can of food that had been mixed with 2.5 g of either untreated or thioredoxin treated BLG. During these intervals dogs were monitored and their GI response assessed. Dogs were then observed and their response recorded at hourly intervals for the next 5 hr.
The digestion response of the food challenged dogs described above was assessed by assigning numbers to the timing, volume and fluidity of vomit induced by feeding. Fluidity: no vomit=0, solid vomit=1, liquid vomit=2, liquid with blood or bile vomit=3. Volume: no vomit=0, small vomit=1 and large vomit=2. Timing: delayed vomit=1, immediate vomit=2.

trypsin = test: Trypsin proteolysis of purified milk allergen proteins; assay type: biochemical; conditions: 2 μg trypsin
Procedure: The analysis of the reduction was done using the mBBr/SDS-PAGE techniques. Further in this study, when 10 μg of an NTS reduced purified milk allergen protein, β-lactoglobulin (Sigma Chemical Co.), was treated with 2 μg of trypsin, proteolysis was 100% as compared with only 50% for the identically trypsin treated oxidized β-lactoglobulin. […] However, 10 μg of purified […] reduced by the NTS was proteolyzed 80% by trypsin. Also 10 μg of α-lactalbumin reduced by 0.8 μg of thioredoxin and 0.5 mM DTT was 100% proteolyzed by 2 μg of trypsin.

Molecule	Gliadin, % Relative Reduction, Aggregate (proteins not entering the gel) (Gliadins) [%]	Gliadin, % Relative Reduction, α (Gliadins) [%]	Gliadin, % Relative Reduction, β (Gliadins) [%]	Gliadin, % Relative Reduction, γ (Gliadins) [%]	Glutenin, % Relative Reduction, 30-40 kDa (Glutenins; Thioredoxin = 100) [%]	Glutenin, % Relative Reduction, 40-60 kDa (Glutenins; Thioredoxin = 100) [%]	Glutenin, % Relative Reduction, 60-110 kDa (Glutenins; Thioredoxin = 100) [%]	also measured
N[C@@H](CCC(=O)N[C@@H](CS)C(=O)NCC(=O)O)C(=O)O [Glutathione, reduced glutathione, reference compound]	60.1	36.4	68.1	60.6				Glutenin, % Relative Reduction, 30-40 kDa (Glutenins): 29%; Glutenin, % Relative Reduction, 40-60 kDa (Glutenins): 51%; Glutenin, % Relative Reduction, 60-110 kDa (Glutenins): 31%; Relative Reduction (%) (castor seed 2S protein): 0%; effectiveness in reducing egg white proteins (egg white proteins): ineffective reductant
erabutoxin b: short postsynaptic snake neurotoxin								reduction of the toxin (thioredoxin): significantly reduced
Treated: BLG reduced with NADPH, E. coli thioredoxin and NTR								time to digestion (pepsin): ≤ 60 s; Upper GI Index (atopic dogs; dog 6GCB1, Treated Exp. A, Control Exp. B): 0; Upper GI Index (atopic dogs; dog 6GCB3, BLG 2.5 g in dog food, Control Exp. A, Treated Exp. B): 0; Upper GI Index (atopic dogs; dog 6GCB4, Treated Exp. A, Control Exp. B): 6; Upper GI Index (atopic dogs; dog 6GCB6, Treated Exp. A, Control Exp. B): 0; Upper GI Index (atopic dogs; dog 6GCB7, Control Exp. A, Treated Exp. B): 3; gastric reflux that disappeared (atopic dogs; repeated feeding trials, on average): about 70%
Thioredoxin: E. coli thioredoxin reduced by NADPH and NTR	100.0	100.0	100.0	100.0	100	100	100	
B1	61.5	43.5	83.3	79.7	40	72	50	
B2								proteolysis by trypsin (trypsin; 10 μg oxidized protein): no noticeable proteolysis; proteolysis by trypsin (trypsin; 10 μg protein reduced by 0.8 μg thioredoxin and 0.5 mM DTT): 100%
